# Results reported in patent US6696249B1, “Method for screening for inhibitors and activators of type III secretion machinery in gram-negative bacteria” (priority 1998, dated 2004).
# Legend:
# ipaH4.5-lacZ fusion = test: ipaH4.5-lacZ transcriptional fusion, β-galactosidase activity in vitro; assay type: cell-based, Shigella flexneri; conditions: ipaD+ strain
# [1] = system: ipaH9.8-, ipaH7.8-, ipaH4.5-, and ipaH1.4-lacZ fusions; test: ipaH-lacZ fusions taken together, β-galactosidase activity in vitro; assay type: cell-based, Shigella flexneri; conditions: 100 μg/ml of Congo red
# ipaH1.4-lacZ fusion = test: ipaH1.4-lacZ transcriptional fusion, β-galactosidase activity in vitro; assay type: cell-based, Shigella flexneri; conditions: ipaD+ strain
# icsB-lacZ fusion = test: icsB-lacZ transcriptional fusion, β-galactosidase activity in vitro; assay type: cell-based, Shigella flexneri
# ipaH7.8-lacZ fusion = test: ipaH7.8-lacZ transcriptional fusion, β-galactosidase activity in vitro; assay type: cell-based, Shigella flexneri; conditions: ipaD+ strain
# virA-lacZ mxiD = test: virA-lacZ transcriptional fusion in mxiD (secretion deficient) strain SF1012, β-galactosidase activity in vitro; assay type: cell-based, Shigella flexneri
# Experimental: (§1) All Shigella flexneri strains identified in Table I are derivatives of the wild-type strain M90T (Sansonetti et al., 1982). Bacteria were grown in Luria-Bertani (LB) medium or tryptic soy (TCS) broth. Antibiotics were used at the following concentrations: ampicillin, 100 μg/ml; kanamycin, 30 μg/ml; and streptomycin, 100 μg/ml. Congo red (SERVA, Heidelberg, Germany) was used to induce secretion by bacteria growing in LB medium.
# To determine whether regulation of virA transcription was dependent on the type III secretion machinery, we compared the β-galactosidase activities produced by the virA-lacZ fusion in derivatives of wild-type (SF1001) and mxiD (SF1012) strains during growth in the presence of Congo red and we compared the production of VirA in ipaD and mxiD ipaD strains.
# (§2) To investigate kinetics of activation of the virA promoter, Congo red (100 μg/ml) was added to the growth medium during the exponential phase of growth of derivatives of the wild-type and mxiD strains carrying the virA-lacZ fusion. Samples were then collected at 5 min intervals and assayed for β-galactosidase activity.
# (§3) The β-galactosidase activity present in bacteria growing in laboratory media was assayed by using the substrate o-nitro-phenyl-β-D-galactoside (ONPG) as described (Platt et al, 1972). The β-galactosidase activity present in intracellular bacteria was assayed by using the substrate 4-methyl-umbelliferyl-β-D-galactoside (MUG) as described (Klarsfeld et al., 1994). Fluorescence was measured by using a Dynatec apparatus, with 365 nm excitation and 450 nm emission wavelengths. Activities were computed as fluorescence units per hour per bacterium; four fluorescence units were equivalent to one Miller unit and all results are presented in Miller units.
# ipaH9.8-lacZ fusion = test: ipaH9.8-lacZ transcriptional fusion, β-galactosidase activity in vitro; assay type: cell-based, Shigella flexneri; conditions: ipaD+ strain
# virA-lacZ fusion = assay type: cell-based, Shigella flexneri
# Experimental: as §1
# Secretion of IpaB and IpaC is enhanced when bacteria grow in the presence of Congo red (Parsot et al, 1995). To investigate the effect of Congo red on virA transcription, we assayed the β-galactosidase activity in strain SF1001 (virA-lacZ ipaD^+) after growth in the presence of various concentrations of Congo red.
# as §2, §3
# [2] = system: icsB-, ipaA-, ipgD-, and mxiD-lacZ fusions; test: entry region lacZ fusions taken together, transcription in vitro; assay type: cell-based, Shigella flexneri; conditions: Congo red in the growth medium
# [3] = system: Secretion of IpaB and IpaC; conditions: Parsot et al, 1995; cited from earlier work
# ipaA-lacZ fusion = test: ipaA-lacZ transcriptional fusion, β-galactosidase activity in vitro; assay type: cell-based, Shigella flexneri
# ipgD-lacZ fusion = test: ipgD-lacZ transcriptional fusion, β-galactosidase activity in vitro; assay type: cell-based, Shigella flexneri
# mxiD-lacZ fusion = test: mxiD-lacZ transcriptional fusion, β-galactosidase activity in vitro; assay type: cell-based, Shigella flexneri
# [4] = ipaD+ strain grown in presence of Congo red
smiles,measurement,setting,value
Nc1c(/N=N/c2ccc(-c3ccc(/N=N/c4cc(S(=O)(=O)O)c5ccccc5c4N)cc3)cc2)cc(S(=O)(=O)O)c2ccccc12 [Congo red],Ratio li: activity with Congo red versus without Congo red,ipaH4.5-lacZ fusion,3.5
same,"β-galactosidase activity, ipaD+ + CR",ipaH4.5-lacZ fusion; 100 μg/ml Congo red,110 Miller units
same,Times more β-galactosidase activity after growth with Congo red,[1],3-12 times
same,Ratio li: activity with Congo red versus without Congo red,ipaH1.4-lacZ fusion,5.1
same,"β-galactosidase activity, ipaD+ + CR",ipaH1.4-lacZ fusion; 100 μg/ml Congo red,270 Miller units
same,Ratio li: activity with Congo red versus without Congo red,icsB-lacZ fusion; ipaD+ strain,1.0
same,"β-galactosidase activity, ipaD+ + CR",icsB-lacZ fusion; [4],285 Miller units
same,Ratio li: activity with Congo red versus without Congo red,ipaH7.8-lacZ fusion,12
same,"β-galactosidase activity, ipaD+ + CR",ipaH7.8-lacZ fusion; 100 μg/ml Congo red,235 Miller units
same,Transcriptional activation of the virA-lacZ fusion after addition of the dye,"virA-lacZ mxiD; mxiD mutant derivative, Congo red 100 μg/ml added in exponential phase",no transcriptional activation
same,Increase in β-galactosidase activity on growth with Congo red,"virA-lacZ mxiD; mxiD strain carrying virA-lacZ, Congo red in growth medium",did not lead to an increase
same,Ratio li: activity with Congo red versus without Congo red,virA-lacZ mxiD; virA-lacZ mxiD strain,1.1
same,"β-galactosidase activity, ipaD+ + CR",virA-lacZ mxiD; virA-lacZ mxiD strain grown in presence of Congo red,18 Miller units
same,Ratio li: activity with Congo red versus without Congo red,ipaH9.8-lacZ fusion,12
same,"β-galactosidase activity, ipaD+ + CR",ipaH9.8-lacZ fusion; 100 μg/ml Congo red,325 Miller units
same,Concentration of Congo red at which virA-lacZ transcription reaches a plateau,virA-lacZ fusion,about 100 μg/ml
same,Transcription of the virA-lacZ fusion at low dye concentrations,"virA-lacZ fusion; SF1001, concentrations of dye up to 20 μg/ml",low
same,Ratio li: activity with Congo red versus without Congo red,"virA-lacZ fusion; virA-lacZ, ipaD+ strain",17
same,"β-galactosidase activity, ipaD+ + CR","virA-lacZ fusion; virA-lacZ, ipaD+ strain grown in presence of 100 μg/ml Congo red, mean of at least three experiments",280 Miller units
same,Time after addition of the dye at which an increase in β-galactosidase specific activity was detected,"virA-lacZ fusion; wild-type derivative, Congo red 100 μg/ml added in exponential phase, samples at 5 min intervals",10 min
same,Effect of Congo red in growth medium on transcription,[2],not affected
same,Secretion of IpaB and IpaC when bacteria grow in the presence of Congo red,[3],enhanced
same,Ratio li: activity with Congo red versus without Congo red,ipaA-lacZ fusion; ipaD+ strain,0.8
same,"β-galactosidase activity, ipaD+ + CR",ipaA-lacZ fusion; [4],390 Miller units
same,Ratio li: activity with Congo red versus without Congo red,ipgD-lacZ fusion; ipaD+ strain,1.1
same,"β-galactosidase activity, ipaD+ + CR",ipgD-lacZ fusion; [4],475 Miller units
same,Ratio li: activity with Congo red versus without Congo red,mxiD-lacZ fusion; ipaD+ strain,1.2
same,"β-galactosidase activity, ipaD+ + CR",mxiD-lacZ fusion; [4],320 Miller units
